One test has as its target T1, delF508-CFTR (Homo sapiens, UniProt P13569, DEL508-508).
T1 construct: functional activity of the CFTR channel (Chloride ion transport) in patient derived primary human bronchial epithelial cells; host or cells: patient-derived primary human bronchial epithelial cells (delF508-CFTR)
Put plainly: Measurement of delF508-CFTR functional activity in primary human bronchial epithelial cells (HBECs) using Multi-Transepithelial Clamp Circuit (MTECC-24) assay. The following applies: primary CF HBECs; for MTECC24 CFHBEC- Amax %: test compound added 24h before assay plus potentiator, relative to reference combination (2 μM corrector + 0.5 μM potentiator); for EC50: test compound added 24h before assay, in the presence of potentiator, mean of at least two replicates, read-out: MTECC24 CFHBEC- EC50. Type of test: cell-based. Put shortly:
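Patient-derived primary delF508-CFTR HBECs, differentiated at air-liquid interface ~2 weeks, treated basolaterally with compound for 24 h, then apical and basolateral compound in HEPES pH 7.4 assay medium. Equivalent short-circuit current (Ieq) recorded on MTECC-24 with sequential amiloride, forskolin, potentiator and INH-172; normalized to 0.1% DMSO, EC50 from curve fit.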

Test [1] has as its target T2, horseradish peroxidase (HRP) tagged delF508-CFTR (Homo sapiens, UniProt P13569, DEL508-508).
T2 construct: expressed in transfected cells
Put plainly: Measurement of delF508-CFTR-HRP surface expression in CFBE41o- cells.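 As to DelF508-CFTR-HRP Amax %: percent efficacy relative to reference corrector lumacaftor.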 In kind it is cell-based. The following applies: delF508-CFTR-HRP surface expression, CFBE41o- cells; for Emax: read-out: DelF508-CFTR-HRP Amax %; for EC50: read-out: DelF508-CFTR-HRP EC50. Put shortly:
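CFBE41o- bronchial epithelial cells stably expressing delF508-CFTR with HRP in the fourth extracellular loop; expression induced 48h with 500 ng/mL doxycycline, then compounds added (top 10 μM, 10-point 3-fold series, ≤0.5% DMSO) for 24h at 37° C. Surface HRP measured by luminescence with cell-impermeant substrate; EC50 from logistic fit of triplicates, plate-normalized to lowest concentration; efficacy also relative to a reference corrector.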

Structures can show the parent of a compound that is named as a salt.

T2 sequence (P13569 with tags, fused parts or gaps DEL508-508): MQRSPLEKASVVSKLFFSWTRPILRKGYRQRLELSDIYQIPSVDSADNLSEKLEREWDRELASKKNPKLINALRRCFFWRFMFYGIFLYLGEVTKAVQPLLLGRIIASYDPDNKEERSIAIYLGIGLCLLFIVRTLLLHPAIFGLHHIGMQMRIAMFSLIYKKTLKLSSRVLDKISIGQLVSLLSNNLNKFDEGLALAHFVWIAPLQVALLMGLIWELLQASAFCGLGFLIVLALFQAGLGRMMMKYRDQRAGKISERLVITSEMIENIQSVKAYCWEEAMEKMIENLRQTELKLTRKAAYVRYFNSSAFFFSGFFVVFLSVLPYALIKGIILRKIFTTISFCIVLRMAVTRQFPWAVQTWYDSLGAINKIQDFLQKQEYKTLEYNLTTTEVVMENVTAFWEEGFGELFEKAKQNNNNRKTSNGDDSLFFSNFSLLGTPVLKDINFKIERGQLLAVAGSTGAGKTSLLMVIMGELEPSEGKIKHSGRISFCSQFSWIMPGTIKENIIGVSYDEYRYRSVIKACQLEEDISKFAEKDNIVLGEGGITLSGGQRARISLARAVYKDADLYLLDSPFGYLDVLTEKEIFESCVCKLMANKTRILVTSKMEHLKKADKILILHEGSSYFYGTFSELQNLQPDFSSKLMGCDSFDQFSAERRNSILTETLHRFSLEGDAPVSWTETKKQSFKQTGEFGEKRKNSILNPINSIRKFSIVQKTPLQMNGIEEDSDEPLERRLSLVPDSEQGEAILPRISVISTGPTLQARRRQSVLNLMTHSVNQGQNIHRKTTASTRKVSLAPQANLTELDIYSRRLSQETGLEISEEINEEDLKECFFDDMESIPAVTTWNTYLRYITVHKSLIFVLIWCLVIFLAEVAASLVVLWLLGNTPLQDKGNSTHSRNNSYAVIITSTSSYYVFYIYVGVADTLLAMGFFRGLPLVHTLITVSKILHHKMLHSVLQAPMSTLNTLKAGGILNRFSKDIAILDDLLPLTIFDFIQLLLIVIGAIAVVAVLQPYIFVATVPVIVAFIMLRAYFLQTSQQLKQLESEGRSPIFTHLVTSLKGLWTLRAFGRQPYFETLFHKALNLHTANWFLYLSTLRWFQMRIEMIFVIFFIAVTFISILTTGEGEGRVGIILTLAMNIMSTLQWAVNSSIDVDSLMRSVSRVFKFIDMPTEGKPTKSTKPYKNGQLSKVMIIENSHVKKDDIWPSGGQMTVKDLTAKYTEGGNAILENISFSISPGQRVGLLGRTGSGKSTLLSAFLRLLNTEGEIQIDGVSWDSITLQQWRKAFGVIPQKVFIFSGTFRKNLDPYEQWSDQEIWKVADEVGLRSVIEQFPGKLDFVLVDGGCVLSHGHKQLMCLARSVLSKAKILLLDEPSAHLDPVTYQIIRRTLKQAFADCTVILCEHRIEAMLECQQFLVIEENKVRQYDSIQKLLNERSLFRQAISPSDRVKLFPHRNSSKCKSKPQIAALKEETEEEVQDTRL
T1 sequence (P13569 with tags, fused parts or gaps DEL508-508): as above

The term EC50 denotes the concentration that produces a half-maximal response. On to `COC(=O)C1(N)CCN(c2cccc(S(=O)(=O)Nc3ccc(Cl)c(-c4c(C)cccc4C)n3)n2)CC1` [Example 270, methyl 4-amino-1-(6-{[5-chloro-6-(2,6-dimethylphenyl)pyridin-2-yl]sulfamoyl}pyridin-2-yl)piperidine-4-carboxylate], for which, at delF508-CFTR, the “MTECC24 CFHBEC- Amax %” value came to 69.5% and the EC50 was determined as 95 nM. Also, in test [1], the Emax is 561% and the 50% effective concentration (EC50) was determined as 1940 nM.
Regarding `Cc1ccc(C#N)cc1-c1nc(NS(=O)(=O)c2cccc(N3CCNCC3)n2)ccc1C(F)(F)F` [Example 311, N-(6-(5-cyano-2-methylphenyl)-5-(trifluoromethyl)pyridin-2-yl)-6-(piperazin-1-yl)pyridine-2-sulfonamide], on delF508-CFTR, the “MTECC24 CFHBEC- Amax %” value is on record as 61.7% and the EC50 turned out to be 220 nM. In test [1], the Emax came to 179% and the EC50 came out at 3270 nM.
In the case of `CCC1(C(=O)O)CCN(c2cccc(S(=O)(=O)Nc3ccc(Cl)c(-c4c(C)cccc4C)n3)n2)CC1` [Example 248, 1-(6-(N-(5-chloro-6-(2,6-dimethylphenyl)pyridin-2-yl)sulfamoyl)pyridin-2-yl)-4-ethylpiperidine-4-carboxylic Acid], at delF508-CFTR, the “MTECC24 CFHBEC- Amax %” value came to 68.2% and the 50% effective concentration (EC50) came to 6.6 nM. Also, in test [1], the Emax was found to be 568% and the EC50 was 1610 nM.
`Cc1ccccc1-c1nc(NS(=O)(=O)c2cccc(N3CCC[C@@H](N)C3)n2)ccc1C(F)(F)F` [Example 102, (R)-6-(3-aminopiperidin-1-yl)-N-(6-(o-tolyl)-5-(trifluoromethyl)pyridin-2-yl)pyridine-2-sulfonamide Hydrochloride]: on delF508-CFTR, the “MTECC24 CFHBEC- Amax %” value amounted to 54.3% and the concentration giving a half-maximal response (EC50) is 136 nM. For the same molecule, in test [1], the Emax was determined as 577% and the concentration giving a half-maximal response (EC50) came out at 3280 nM.
On to `Cc1ccccc1-c1nc(NS(=O)(=O)c2cccc(N[C@@H]3COCC[C@H]3O)n2)ccc1C(F)(F)F` [Example 279, 6-{[(3R,4R)-4-hydroxyoxan-3-yl]amino}-N-[6-(2-methylphenyl)-5-(trifluoromethyl)pyridin-2-yl]pyridine-2-sulfonamide], for which, on delF508-CFTR, the “MTECC24 CFHBEC- Amax %” value was 93.7% and the EC50 turned out to be 3.5 nM. In addition, the half-maximal effective concentration (EC50) in test [1] stood at 1190 nM.
With `Cc1ccc(F)cc1-c1nc(NS(=O)(=O)c2cccc(N3CCNCC3)n2)ccc1C(F)(F)F` [Example 152, N-(6-(5-Fluoro-2-Methylphenyl)-5-(Trifluoromethyl)Pyridin-2-yl)-6-(Piperazin-1-yl)Pyridine-2-Sulfonamide Hydrochloride], at delF508-CFTR, the “MTECC24 CFHBEC- Amax %” value came out at 62.5% and the half-maximal effective concentration (EC50) was 57.8 nM. Further, in test [1], the Emax amounted to 332% and the concentration giving a half-maximal response (EC50) was 2680 nM.
With `Cc1ccccc1-c1nc(NS(=O)(=O)c2cccc(N3CCN4C[C@@H](F)C[C@@H]4C3)n2)ccc1C(F)(F)F` [Example 138, 6-((7S,8aR)-7-fluorohexahydropyrrolo[1,2-a]pyrazin-2(1H)-yl)-N-(6-(o-tolyl)-5-(trifluoromethyl)pyridin-2-yl)pyridine-2-sulfonamide], on delF508-CFTR, the “MTECC24 CFHBEC- Amax %” value turned out to be 108.4% and the half-maximal effective concentration (EC50) is 15.6 nM. Also, in test [1], the Emax worked out at 636% and the concentration for a half-maximal effect (EC50) is 681 nM.
Turning to `Cc1ccc(F)cc1-c1nc(NS(=O)(=O)c2cccc(N3CCN(C4CC4)CC3)n2)ccc1C(F)(F)F` [Example 145, 6-(4-cyclopropylpiperazin-1-yl)-N-(6-(5-fluoro-2-methylphenyl)-5-(trifluoromethyl)pyridin-2-yl)pyridine-2-sulfonamide], at delF508-CFTR, the “MTECC24 CFHBEC- Amax %” value was found to be 90.9% and the EC50 worked out at 5 nM. In addition, the EC50 in test [1] stood at 1270 nM.
As for `Cc1ccc(F)cc1-c1nc(NS(=O)(=O)c2cccc(N3CC(C)(O)C3)n2)ccc1C(F)(F)F` [Example 219, N-(6-(5-fluoro-2-methylphenyl)-5-(trifluoromethyl)pyridin-2-yl)-6-(3-hydroxy-3-methylazetidin-1-yl)pyridine-2-sulfonamide], on delF508-CFTR, the “MTECC24 CFHBEC- Amax %” value stood at 119.0% and the EC50 was 11.1 nM. In test [1], the Emax was 711% and the half-maximal effective concentration (EC50) is 1600 nM.
For `Cc1ccccc1-c1nc(NS(=O)(=O)c2cccc(N3CC4(C3)OCCC4N)n2)ccc1C(F)(F)F` (stereo not drawn) [Example 303, 6-(8-amino-5-oxa-2-azaspiro[3.4]octan-2-yl)-N-(6-(o-tolyl)-5-(trifluoromethyl)pyridin-2-yl)pyridine-2-sulfonamide], in that order: 65.5%, 71.7 nM, 491% and 3170 nM.
Take `COC(=O)C1CCN(c2cccc(S(=O)(=O)Nc3ccc(Cl)c(-c4c(C)cccc4C)n3)n2)CC1` [Example 246, methyl 1-(6-(N-(5-chloro-6-(2,6-dimethylphenyl)pyridin-2-yl)sulfamoyl)pyridin-2-yl)piperidine-4-carboxylate]: at delF508-CFTR, the “MTECC24 CFHBEC- Amax %” value is 56.3% and the concentration giving a half-maximal response (EC50) came to 51 nM. In addition, in test [1], the Emax was determined as 875% and the EC50 worked out at 1790 nM.
For the molecule `Cc1c(C#N)cccc1-c1nc(NS(=O)(=O)c2cccc(N3CC(C)(O)C3)n2)ccc1Cl` [Example 309, N-(5-chloro-6-(3-cyano-2-methylphenyl)pyridin-2-yl)-6-(3-hydroxy-3-methylazetidin-1-yl)pyridine-2-sulfonamide], at delF508-CFTR, the “MTECC24 CFHBEC- Amax %” value came to 75.6% and the EC50 worked out at 210 nM. Also, in test [1], the Emax worked out at 194% and the EC50 was found to be 3790 nM.
As for `O=S(=O)(Nc1ccc(C(F)(F)F)c(-c2ccc(F)cc2Cl)n1)c1cccc(N2CC(O)C2)n1` [Example 225, N-(6-(2-chloro-4-fluorophenyl)-5-(trifluoromethyl)pyridin-2-yl)-6-(3-hydroxyazetidin-1-yl)pyridine-2-sulfonamide], at delF508-CFTR, the “MTECC24 CFHBEC- Amax %” value was 87.7% and the EC50 worked out at 17.6 nM. In addition, in test [1], the Emax amounted to 361% and the half-maximal effective concentration (EC50) turned out to be 2740 nM.
On to `Cc1ccc(F)cc1-c1nc(NS(=O)(=O)c2ccnc(N3CCOC[C@H]3C)c2)ccc1Cl` [Example 318, (R)—N-(5-chloro-6-(5-fluoro-2-methylphenyl)pyridin-2-yl)-2-(3-methylmorpholino)pyridine-4-sulfonamide], for which, at delF508-CFTR, the “MTECC24 CFHBEC- Amax %” value turned out to be 48.7% and the 50% effective concentration (EC50) was determined as 77.6 nM. Moreover, in test [1], the Emax is 318% and the EC50 was found to be 3170 nM.
For `CCc1ccccc1-c1nc(NS(=O)(=O)c2cccc(N3CCC[C@H](C(=O)O)C3)n2)ccc1C(F)(F)F` [Example 370, (S)-1-(6-(N-(6-(2-ethylphenyl)-5-(trifluoromethyl)pyridin-2-yl)sulfamoyl)pyridin-2-yl)piperidine-3-carboxylic Acid], at delF508-CFTR, the “MTECC24 CFHBEC- Amax %” value was found to be 105.9% and the EC50 was determined as 0.85 nM. Further, in test [1], the Emax worked out at 601% and the concentration giving a half-maximal response (EC50) came out at 1470 nM.
The matching figures for `Cc1c(F)cccc1-c1nc(NS(=O)(=O)c2cccc(N3CCN(C(C)(C)C)CC3)n2)ccc1Cl` [Example 140, 6-(4-(tert-butyl)piperazin-1-yl)-N-(5-chloro-6-(3-fluoro-2-methylphenyl)pyridin-2-yl)pyridine-2-sulfonamide]: 65.3%, 29.5 nM, 395% and 3480 nM.
Consider `Cc1ccccc1-c1nc(NS(=O)(=O)c2cccc(N3CCN(C)C(=O)C3)n2)ccc1C(F)(F)F` [Example 196, 6-(4-methyl-3-oxopiperazin-1-yl)-N-(6-(o-tolyl)-5-(trifluoromethyl)pyridin-2-yl)pyridine-2-sulfonamide], for which, on delF508-CFTR, the “MTECC24 CFHBEC- Amax %” value was 82.4% and the EC50 came out at 9.6 nM. Besides, in test [1], the Emax came to 389% and the EC50 stood at 3060 nM.
The matching figures for `CCOC(=O)C1(C)CCN(c2cccc(S(=O)(=O)Nc3ccc(C(F)(F)F)c(-c4ccccc4C)n3)n2)CC1` [Example 259, ethyl 4-methyl-1-(6-{[6-(2-methylphenyl)-5-(trifluoromethyl)pyridin-2-yl]sulfamoyl}pyridin-2-yl)piperidine-4-carboxylate]: 66.7%, 1.9 nM, 801% and 1570 nM.
`Cc1ccccc1-c1nc(NS(=O)(=O)c2cccc(N3CCN(C(N)=O)CC3)n2)ccc1C(F)(F)F` [Example 184, 4-(6-(N-(6-(o-tolyl)-5-(trifluoromethyl)pyridin-2-yl)sulfamoyl)pyridin-2-yl)piperazine-1-carboxamide]: at delF508-CFTR, the “MTECC24 CFHBEC- Amax %” value is reported as 69.2% and the half-maximal effective concentration (EC50) came to 53.5 nM. Also, in test [1], the Emax was found to be 149% and the EC50 worked out at 835 nM.
For the molecule `Cc1cccc(C)c1-c1nc(NS(=O)(=O)c2cccc(N3CCN[C@H](CO)C3)n2)ccc1C(F)(F)F` [Example 173, (S)—N-(6-(2,6-dimethylphenyl)-5-(trifluoromethyl)pyridin-2-yl)-6-(3-(hydroxymethyl)piperazin-1-yl)pyridine-2-sulfonamide Hydrochloride], on delF508-CFTR, the “MTECC24 CFHBEC- Amax %” value is on record as 61.4% and the EC50 was determined as 76.9 nM. Moreover, in test [1], the Emax amounted to 682% and the EC50 stood at 2370 nM.

The record behind these values is patent US11066369B2, “N-(pyridin-2-yl)pyridine-sulfonamide derivatives and their use in the treatment of disease” (Novartis AG, priority 2016, dated 2021).
